One assay deals with Cytochrome P450 2C9 (Homo sapiens, UniProt P11712). The note with it: Potency.
For assay [1], the target named is T1, Neuropeptides B/W receptor type 1 (Homo sapiens, UniProt P48145).
T1 sequence (P48145 whole entry): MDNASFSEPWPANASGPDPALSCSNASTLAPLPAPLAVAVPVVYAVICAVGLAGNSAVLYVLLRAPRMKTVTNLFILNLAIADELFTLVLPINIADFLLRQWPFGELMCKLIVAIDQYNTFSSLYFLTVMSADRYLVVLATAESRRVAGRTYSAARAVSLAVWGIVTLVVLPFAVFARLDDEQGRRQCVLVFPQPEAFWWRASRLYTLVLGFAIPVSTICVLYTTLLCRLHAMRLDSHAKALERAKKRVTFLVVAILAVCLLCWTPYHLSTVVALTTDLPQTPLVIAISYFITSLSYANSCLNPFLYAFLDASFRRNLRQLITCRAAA
The assay can be described thus: Fluorescence-based dose response cell-based high throughput screening assay to identify antagonists of the G-protein coupled receptor 7 (GPR7). [Related pubchem assays: 1952 (Screening assay (GPR7 antagonists).), 1880 (Summary AID.)]. The format is functional.

The target in assay [2] is Melanin-concentrating hormone receptor 1 (Homo sapiens, UniProt Q99705). The assay can be described thus: Fluorescence-based counterscreen for antagonists of the G-protein coupled receptor 7 (GPR7): cell-based high throughput dose response assay to identify antagonists of the melanin-concentrating hormone receptor 1 (MCHR1). The format is functional.
Assay [3] in a line: viability of uninfected HEp-2 cells – cell-based, HTS, cytotoxicity control for RSV inhibitor project, dose response (AID 2410). The format is functional. The note with it: human respiratory syncytial virus.
In another assay the target is T2, Leucine aminopeptidase (Plasmodium falciparum 3D7, UniProt Q8IL11).
T2 sequence (Q8IL11 whole entry): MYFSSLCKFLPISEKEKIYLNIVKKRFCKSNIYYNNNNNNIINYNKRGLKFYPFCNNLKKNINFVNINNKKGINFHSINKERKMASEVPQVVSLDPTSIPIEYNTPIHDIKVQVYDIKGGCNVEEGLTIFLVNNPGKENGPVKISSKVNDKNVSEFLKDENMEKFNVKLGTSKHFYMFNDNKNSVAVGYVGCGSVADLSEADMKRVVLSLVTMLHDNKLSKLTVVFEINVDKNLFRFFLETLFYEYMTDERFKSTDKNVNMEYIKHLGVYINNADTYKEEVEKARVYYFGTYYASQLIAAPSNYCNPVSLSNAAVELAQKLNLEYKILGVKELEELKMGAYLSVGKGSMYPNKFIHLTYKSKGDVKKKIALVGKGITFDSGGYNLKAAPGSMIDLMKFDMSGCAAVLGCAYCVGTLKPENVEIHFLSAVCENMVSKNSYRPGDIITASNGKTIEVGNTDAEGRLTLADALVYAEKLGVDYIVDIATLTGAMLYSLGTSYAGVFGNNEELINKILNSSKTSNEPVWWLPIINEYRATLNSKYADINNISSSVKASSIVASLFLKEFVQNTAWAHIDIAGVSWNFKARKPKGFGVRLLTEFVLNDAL
In words: P. falciparum M17LAP inhibitors, primary screen, biochemical, fluorogenic H-Leu-NHMec substrate, 1536-well (AID 1619). The format is functional.

The nature of assay [4]: HIV-1 AD8 envelope cell-cell fusion blockers – cherry-pick, dose response (AID 652062).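 Also: luciferase signal from cell-cell fusion driven by HIV-1 clade B AD8 Env; potency is for inhibitors of fusion seen as a drop in luminescence.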 The format is functional, cell-based.
The nature of assay [5]: off-target signal loss in HeLa-CEM21 co-culture – HeLa F-luc CTL cells, cherry-picked, counter-screen for HIV-1 Env fusion inhibitor project, dose response (AID 652040).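 Also: potency for signal decrease marking cytotoxic or nonspecific inhibition.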 The format is functional, cell-based.
Assay [6] can be described thus: blockers of HIV-1 envelope-mediated cell-cell fusion – cherry-pick, dose response (AID 652057). The assay is classed as functional, cell-based.
A short description of assay [7]: blockers of HIV-1 ZM109 envelope-driven cell-cell fusion – HeLa effector, CEM target cells, luciferase, cherry-pick, dose response (AID 652058).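 Also: luciferase signal from HIV-1 Env mediated cell-cell fusion of effector and target cells.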 The assay is classed as functional, cell-based.
In a further assay the target is T3, Protein Tat (Human immunodeficiency virus type 1 group M subtype B (isolate HXB2)(HIV-1), UniProt P04608).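 Also: tat binding to TAR RNA read out by fluorescence polarization.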
T3 sequence (P04608 whole entry): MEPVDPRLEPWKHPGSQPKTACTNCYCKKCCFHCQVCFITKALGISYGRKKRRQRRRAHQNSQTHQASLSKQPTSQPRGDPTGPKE
The format is functional.

Assay [8] in a line: viability loss in THP-1 monocytes – THP-1 cells, cytotoxicity control for Vif-APOBEC3G degradation inhibitor project, dose response (AID 1117359). The note with it: THP-1. The format is functional.
A further assay relates to Vero. In words: cells. The note with it: Chlorocebus sabaeus. The assay is classed as functional.
The target in assay [9] is T4, SUMO-activating enzyme (Homo sapiens, UniProt Q9UBT2). In words: blockers of SAE1/SAE2–UBC9 SUMO transfer – biochemical, HTRF, uHTS, primary screen (AID 2006). The assay is classed as protein-complex assay.
For assay [10], the target named is T4, SUMO-activating enzyme. The assay can be described thus: blockers of UBC9-mediated SUMO conjugation – biochemical, AlphaScreen, SUMOylation inhibitor project, confirmation (AID 2018). The format is functional.
Assay [11] is described as follows: Dd2 parasite growth inhibition in erythrocytes – SYBR Green, dry powder samples, set 9, dose response (AID 1159568). The assay is classed as functional, cell-based.

Calls of active or inactive are those of the source.

Cytochrome P450 2C9, sequence (P11712 whole entry): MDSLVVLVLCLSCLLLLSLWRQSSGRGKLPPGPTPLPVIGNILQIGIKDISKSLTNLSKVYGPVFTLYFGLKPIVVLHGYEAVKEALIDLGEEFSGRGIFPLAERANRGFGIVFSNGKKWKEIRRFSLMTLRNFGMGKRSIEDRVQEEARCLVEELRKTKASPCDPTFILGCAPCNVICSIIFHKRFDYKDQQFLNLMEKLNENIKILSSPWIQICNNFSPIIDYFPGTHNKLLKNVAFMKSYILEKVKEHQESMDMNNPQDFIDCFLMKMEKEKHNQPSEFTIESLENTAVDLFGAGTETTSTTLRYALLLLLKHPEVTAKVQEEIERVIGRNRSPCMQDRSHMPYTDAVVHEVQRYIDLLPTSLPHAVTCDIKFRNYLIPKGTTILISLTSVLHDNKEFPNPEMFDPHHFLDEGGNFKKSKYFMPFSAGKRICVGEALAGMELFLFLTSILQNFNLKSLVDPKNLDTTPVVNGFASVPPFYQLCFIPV
Melanin-concentrating hormone receptor 1, sequence (Q99705 whole entry): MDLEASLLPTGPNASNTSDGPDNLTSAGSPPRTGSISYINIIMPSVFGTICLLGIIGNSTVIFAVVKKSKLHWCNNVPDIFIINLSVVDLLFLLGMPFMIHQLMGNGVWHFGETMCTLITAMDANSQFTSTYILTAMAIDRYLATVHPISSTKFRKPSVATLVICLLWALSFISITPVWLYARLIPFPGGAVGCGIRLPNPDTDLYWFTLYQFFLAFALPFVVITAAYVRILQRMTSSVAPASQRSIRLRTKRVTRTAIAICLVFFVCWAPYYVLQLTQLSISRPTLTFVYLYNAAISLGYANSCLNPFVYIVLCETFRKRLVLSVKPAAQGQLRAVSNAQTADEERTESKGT
T4 sequence (Q9UBE0 whole entry): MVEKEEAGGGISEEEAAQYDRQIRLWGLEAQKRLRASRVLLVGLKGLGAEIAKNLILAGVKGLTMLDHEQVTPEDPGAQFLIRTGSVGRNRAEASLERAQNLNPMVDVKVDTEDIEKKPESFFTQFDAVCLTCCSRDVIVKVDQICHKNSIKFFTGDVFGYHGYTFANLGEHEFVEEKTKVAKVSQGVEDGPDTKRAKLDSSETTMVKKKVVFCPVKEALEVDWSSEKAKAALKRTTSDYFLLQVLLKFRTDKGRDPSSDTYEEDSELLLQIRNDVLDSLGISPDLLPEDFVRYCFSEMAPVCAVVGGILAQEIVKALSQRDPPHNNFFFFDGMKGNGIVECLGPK
T4 sequence (Q9UBT2 whole entry): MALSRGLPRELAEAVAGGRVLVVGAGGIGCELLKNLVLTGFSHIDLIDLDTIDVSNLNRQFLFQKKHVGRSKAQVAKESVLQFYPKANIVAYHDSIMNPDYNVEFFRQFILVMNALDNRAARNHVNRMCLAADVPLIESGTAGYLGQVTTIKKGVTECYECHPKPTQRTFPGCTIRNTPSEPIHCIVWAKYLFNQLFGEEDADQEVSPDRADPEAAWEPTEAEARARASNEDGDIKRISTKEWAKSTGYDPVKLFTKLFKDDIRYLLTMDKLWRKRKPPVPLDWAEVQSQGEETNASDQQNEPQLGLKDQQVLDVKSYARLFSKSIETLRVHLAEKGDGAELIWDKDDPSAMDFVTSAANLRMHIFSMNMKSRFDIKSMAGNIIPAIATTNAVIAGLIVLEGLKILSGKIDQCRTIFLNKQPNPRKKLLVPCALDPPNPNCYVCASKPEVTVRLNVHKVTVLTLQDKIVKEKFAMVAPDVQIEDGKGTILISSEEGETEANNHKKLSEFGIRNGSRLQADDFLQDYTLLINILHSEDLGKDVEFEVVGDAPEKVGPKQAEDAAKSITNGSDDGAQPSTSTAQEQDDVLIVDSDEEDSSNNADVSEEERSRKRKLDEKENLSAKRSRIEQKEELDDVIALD

For `CCCCC#CC1C=CC(Oc2cc(OC)c(OC)c(OC)c2)C(COC(=O)OCC)O1` (stereo not drawn), the AC50 on Cytochrome P450 2C9 is 6.31 µM (inconclusive).

Turning to `CN(c1ccccc1)S(=O)(=O)c1ccc(C(=O)NCCc2ccccc2)cc1`, the IC50 in [1] is recorded as > 14.6 µM (not active); in assay [2], 16 µM (not active).

As for `COc1ccc(NS(=O)(=O)c2cccc(C(=O)NCC(c3ccc(F)cc3)N3CCOCC3)c2)cc1` (stereo not drawn), the IC50 was > 43.8 µM (not active) in assay [1] and 23.6 µM (not active) in assay [2].

For `c1ccc(CCn2c3ccccc3c3nnc(SCc4ccc5nonc5c4)nc32)cc1`, the CC50 in assay [3] was 22.3 µM (active). Moreover, the IC50 in the assay “cells” is 28.3 µM (active).

Regarding `O=S(=O)(Nc1cccc(-c2ccc(N3CCOCC3)nn2)c1)c1cc(Cl)ccc1Cl`, the CC50 in assay [3] was 23.5 µM (active). Also, the IC50 in “cells” was 8.9 µM (active).

`O=C1CCCN1c1ccc(C(=O)N(Cc2nnc(-c3ccccc3Cl)o2)C2CC2)cc1`: the CC50 in assay [3] is 48.5 µM (active). Also, in the assay “cells”, the IC50 was 18.8 µM (active).

Consider `CC(C)C[C@@H](CC(=O)N[C@@H](CCCN)CC(=O)N[C@@H]1CCCC[C@H]1C(=O)N[C@H](CC(=O)N[C@@H](CCC(=O)O)CC(=O)O)Cc1c[nH]c2ccccc12)NC(=O)[C@@H]1CCCC[C@H]1N`, for which the AC50 at Cytochrome P450 2C9 is 39.8 µM (inconclusive).

As for `CSc1ncnc2c1ncn2CC(=O)[C@H]1CC[C@H]2[C@H]3CCC4=CC(=O)CC[C@@]4(C)[C@@H]3CC[C@@]12C`, the AC50 on Cytochrome P450 2C9 was 3.16 µM (inconclusive).

For the molecule `COc1ccc(CNC(=O)Cc2c(C(=O)O)[nH]c3ccccc23)cc1`, the IC50 at Leucine aminopeptidase was 35.6 µM (active).

On to `COC(=O)CNC(c1ccccc1)c1cc(C)ccc1NC(=O)CNC(=O)OCc1ccccc1` (stereo not drawn), for which the IC50 in [1] was 35.3 µM (not active); in assay [2] it was 20 µM (not active). Besides, the AC50 was 36.1 µM (active) in assay [4], 6.15 µM (active) in [5], 3.28 µM (active) in assay [6] and 6.89 µM (active) in [7].

For `C[C@@H]1CN([C@@H](C)CO)C(=O)c2cc(NC(=O)Nc3ccccc3)ccc2O[C@@H](C)CCCCO[C@H]1CN(C)C(=O)Nc1ccc(C(F)(F)F)cc1`, the IC50 on Protein Tat was > 100 µM (active). Besides, the CC50 in [8] was 36.3 µM (active).

For the molecule `Sc1nnc(-c2cccs2)n1/N=C/c1cn(-c2ccccc2)nc1-c1ccc(Cl)cc1`, the CC50 with Vero is > 25 µM (active). The IC50 on SUMO-activating enzyme [9] is 34.5 µM (active); at SUMO-activating enzyme [10], 5.24 µM (active).

As for `Cc1cccc(N/N=C(\C#N)S(=O)(=O)C(C)(C)C)c1`, the IC50 at Leucine aminopeptidase is 19 µM (active).

In the case of `C/C=C/c1ccc([C@H]2[C@@H](CO)N(CC3CCCCC3)[C@H]2CNC(C)C)cc1`, the AC50 in assay [11] was 5.66 µM (active).

Consider `COc1ccc(S(=O)(=O)Nc2ccc3c(c2)C(=O)N([C@H](C)CO)C[C@@H](C)[C@@H](CN(C)S(=O)(=O)c2ccc(Cl)cc2)OCCCC[C@@H](C)O3)cc1`, for which the AC50 in assay [11] was 0.742 µM (active).

Source of the values: ChEMBL document CHEMBL1201862, “PubChem BioAssay data set” (2004).
